From patent publication US20210330756A1, “Acetylation of Miro1” (University of South Carolina, priority 2020, published 2021) come the findings set out here.

The test system of assay [1] is growth cones of DRG neurons. As to the kind of experiment: Immunolabeling of growth cone cytoskeleton (Ac-α-tubulin, tyrosinated α-tubulin, F-actin). The format is cell-based, rat. Here is the method:
(§1) We tested for this specificity in the adult DRG neurons from above by immunoblotting. […] (A) Number of mitochondria in growth cones after exposing DRG cultures to 10 μM TubA versus vehicle (control) for 1 h is shown as average fold-change in number of mitochondria per growth cone±SEM (n=13 axons across three culture preparations; *, P≤0.05 by one-way ANOVA with Bonferroni post hoc analysis). (B) Representative EMs of Remak bundles (arrowheads) in naive Sciatic nerve and nerves after 2 h vehicle (DMSO) or TubA injection are shown. Arrows indicate mitochondria in the unmyelinated axons. Note that a Schwann cell nucleus (asterisk) is seen in the Remak bundle for DMSO image but not the other two micrographs (scale bar=3 μm). (C) Quantification of number of mitochondria per unmyelinated axon from EM images as in B is shown as average±SEM (n≥5; *****, P≤0.0001 by one-way ANOVA with Bonferroni post hoc analysis). (D-F) Quantification for indicated parameters for mitochondrial transport in sciatic nerve in vivo using tetramethylrhodamine, ethyl ester, perchlorate to visualize mitochondria is shown.
We used a sequential immunostaining approach for simultaneous detection of tyrosinated α-tubulin (by indirect immunofluorescence), Ac-α-tubulin, and β-tubulin (by direct immunofluorescence). Phalloidin staining was also used to detect F-actin. Monoclonal mouse anti-Ac-α-tubulin IgG (6-11-B1; Sigma-Aldrich; T6793) was conjugated to Alexa Fluor 405 using the Zenon Labeling Kit per the manufacturer's instructions (Life Technologies; Z-25013). After fixation and permeabilization, coverslips were incubated with anti-Tyr-α-tubulin IgG (1:100; Sigma-Aldrich; T9028) in 1% blocking buffer overnight at 4° C. in a humidified chamber. […] Coverslips were washed twice with PBS then stained with Actin-Red 555 Ready Probe for 30 min (1:25 dilution of 200 /Uml stock; Thermo Fisher Scientific; R37112). […] Epifluorescence and confocal imaging was used for imaging of fixed samples to obtain protein localization and quantitation data. […]

The subject of assay [2] is axons of adult mouse DRG neurons. Kind of assay: Microfluidic devices: exposure limited to axons of DRG neurons. In kind it is cell-based. From the text: To determine if the effect of growth inhibitors on mitochondrial recovery was limited to distal axons, we performed FRAP on more proximal segments of the axon shaft in DRG neurons expressing Mito-GFP. For analyses of recovery, the bleached ROIs were divided into four subregions along the axon length so that we could distinguish anterograde from retrograde transport-driven Mito-GFP recovery. […] Since this effect of MAG-Fc on recovery could derive from either axons or cell body, we cultured dissociated DRGs in microfluiclic devices where we could limit exposure to MAG-Fc and TubA to the axons.
For primary culture of rat DRG neurons, L4-5 DRG were harvested in Hibernate-A medium (BrainBits) and then dissociated using type I collagenase (50 U/ml; Gibco) for 20 min at 37° C. and 5% CO2(Twiss et al., 2000). Dissociated ganglia were cultured in complete medium containing 10% FetalPlex animal serum complex (Gemini), 1% N1 Supplement (Sigma-Aldrich), and 10 μM cytosine-arabinoside (Sigma-Aldrich) on laminin/poly-L-lysine-coated substrates. Mouse neurons were used for cultures in microfluidic devices. For these, all cervical, thoracic, and lumbar DRGs were collected and digested with collagenase (4 mg/ml, Worthington) and dispase (1 mg/ml; Sigma-Aldrich) for 45 min at 37° C. and 5% CO2; these cells were plated in DMEM/F12 and 10% FBS at 37° C. and 5% CO2. […]

Another assay deals with Ac-histone H4. As to the kind of experiment: Immunoblotting for Ac-histone H4 in adult DRG neurons (HDAC specificity). In kind it is cell-based, rat. Here is the method:
as §1
For immunoblotting, protein lysates or immunoprecipitates were denatured by boiling in Laemmli sample buffer, fractionated by SDS-PAGE, and transferred to nitrocellulose membranes. Blots were blocked for 1 h at room temperature with 5% nonfat dry milk in TBS with 0.1% Tween 20 (TBST). Primary antibodies diluted in 5% BSA in TBST were added to the membranes and incubated overnight at 4° C. with rocking. Primary antibodies consisted of rabbit anti-Myc (1:2,000; Cell Signaling; 71D10), rabbit anti-RHOT1 antibody (1:1,000; Aviva Systems Biology; ARP44817 P050), rabbit anti-HDAC6 antibody (1:2,000; Cell Signaling; 7558), rabbit anti-ERK1 (1:5,000; Abcam; ab32537), and affinity-purified custom rabbit anti-Miro1-AcK105 (1:2,500; Twiss laboratory, see above) antibodies. For the anti-Miro1-AcK105 antibody, preimmune and test-bleed sera were used at 1:1,000 dilutions to initially evaluate for specificity. After washing in TBST, blots were incubated with HRP-conjugated anti-rabbit IgG antibodies (1:5,000; Jackson Immunoresearch) diluted in blocking buffer for 1 h at room temperature. Signals were detected using ECL Prime (GE Healthcare) after extensive washing.
(In western blotting, separated proteins are transferred to a membrane and probed.)

Regarding `CN1CCc2c(c3ccccc3n2Cc2ccc(C(=O)NO)cc2)C1` [TubA, tubastatin], in assay [1] (10 μM vs control cultures), the “anti-Ac-α-tubulin immunoreactivity in growth cones” value was “significant increase in anti-Ac-α-tubulin immunoreactivity in growth cones”. The “tyrosinated α-tubulin in growth cones” value in assay [1] (10 μM vs control cultures) was “no change in tyrosinated α-tubulin”. For the same molecule, in assay [1] (TubA-treated cultures), the “growth cone signals for F-actin” value was “consistently decreased”. Further, the “effect on MAG-Fc-dependent decrease in distal axon mitochondria” value in assay [2] (TubA in axonal compartment) is recorded as “prevented by TubA treatment”. In assay [2] (TubA treatment), the “axon retraction and end bulb formation in distal axons after MAG-Fc” value is “prevented the axon retraction and end bulb formation”. Moreover, the “Ac-histone H4 levels” value with Ac-histone H4 (1 μM) is given as “no change in Ac-histone H4 levels”; with Ac-histone H4 (10 μM), “no change in Ac-histone H4 levels”; in the assay on Ac-histone H4 (100 μM) it was “only modest increase in Ac-histone H4”.
